# Experimental data as given in patent US10765662B2, “Mono- or di-substituted indole derivatives as dengue viral replication inhibitors” (Janssen Pharmaceuticals, Inc., priority 2015, dated 2020).
# What was measured:
# [1] = system: DENV-2 16681 strain labeled with enhanced green fluorescent protein; assay: DENV-2 antiviral assay (eGFP fluorescence read-out in Vero cells); format: cell-based, Dengue virus; details: DENV-2 16681 eGFP, MOI 0.5, 3 days
# Procedure: The antiviral activity of all the compounds of the invention was tested against the DENV-2 16681 strain which was labeled with enhanced green fluorescent protein (eGPF). The culture medium consists of minimal essential medium supplemented with 2% of heat-inactivated fetal calf serum, 0.04% gentamycin (50 mg/mL) and 2 mM of L-glutamine. Vero cells, obtained from ECACC, were suspended in culture medium and 25 μL was added to 384-well plates (2500 cells/well), which already contain the antiviral compounds. Typically, these plates contain a 5-fold serial dilution of 9 dilution steps of the test compound at 200 times the final concentration in 100% DMSO (200 nL). […] Finally, each plate contains wells which are assigned as virus controls (containing cells and virus in the absence of compound), cell controls (containing cells in the absence of virus and compound) and medium controls (containing medium in the absence of cells, virus and compounds). To the wells assigned as medium control, 25 μL of culture medium was added instead of Vero cells. Once the cells were added to the plates, the plates were incubated for 30 minutes at room temperature to allow the cells to distribute evenly within the wells. Next, the plates were incubated in a fully humidified incubator (37° C., 5% CO2) until the next day. Then, DENV-2 strain 16681, labeled with eGFP, was added at a multiplicity of infection (MOI) of 0.5. Therefore, 15 μL of virus suspension was added to all the wells containing test compound and to the wells assigned as virus control. In parallel, 15 μL of culture medium was added to the medium and cell controls. Next, the plates were incubated for 3 days in a fully humidified incubator (37° C., 5% CO2). At the day of the read out, the eGFP fluorescence was measured using an automated fluorescence microscope at 488 nm (blue laser). Using an in-house LIMS system, inhibition dose response curves for each compound were calculated and the half maximal effective concentration (EC50) was determined. Therefore, the percent inhibition (I) for every test concentration is calculated using the following formula: I=100*([…])/(SVC−SCC); ST, SCC and SVC are the amount of eGFP signal in the test compound, cell control and virus control wells, respectively. The EC50 represents the concentration of a compound at which the virus replication is inhibited with 50%, as measured by a 50% reduction of the eGFP fluorescent intensity compared to the virus control. The EC50 is calculated using linear interpolation (Table 1).
# DENV-2 strain 16681 = assay: Tetravalent RT-qPCR assay Protocol A, serotype 2; format: cell-based; details: Dengue virus, DENV2, 72 h; RT-qPCR serotype 2 16681, Vero cells, day 3
# Procedure: (§1) The antiviral activity of the compounds of the invention was tested against DENV-1 strain TC974#666 (NCPV), DENV-2 strain 16681, DENV-3 strain H87 (NCPV) and DENV-4 strains H241 (NCPV) and EDEN (SG/06K2270DK1/2005; GenBank accession number QG398256) in a RT-qPCR assay. Therefore, Vero cells were infected with either DENV-1, or -2, or -3, or -4 in the presence or absence of test compounds. At day 3 post-infection, the cells were lysed and cell lysates were used to prepare cDNA of both a viral target (the 3′UTR of DENV; Table 2) and a cellular reference gene (β-actin, Table 2). Subsequently, a duplex real time PCR was performed on a Lightcycler480 instrument. The generated Cp value is inversely proportional to the amount of RNA expression of these targets. Inhibition of DENV replication by a test compound results in a shift of Cp's for the 3′UTR gene. On the other hand, if a test compound is toxic to the cells, a similar effect on β-actin expression will be observed. The comparative ΔΔCp method is used to calculate EC50, which is based on the relative gene expression of the target gene (3′UTR) normalized with the cellular housekeeping gene (β-actin). In addition, CC50 values are determined based on the Cp values acquired for the housekeeping gene β-actin.
# (§2) The culture medium consisted of minimal essential medium supplemented with 2% of heat-inactivated fetal calf serum, 0.04% gentamycin (50 mg/mL) and 2 mM of L-glutamine. Vero cells, obtained from ECACC, were suspended in culture medium and 75 μL/well was added in 96-well plates (10000 cells/well), which already contain the antiviral compounds. […] In addition, each plate contains wells which are assigned as virus controls (containing cells and virus in the absence of compound) and cell controls (containing cells in the absence of virus and compound). Once the cells were added in the plates, the plates were incubated in a fully humidified incubator (37° C., 5% CO2) until the next day. Dengue viruses serotype-1, 2, 3 and 4 were diluted in order to obtain a Cp of ˜22-24 in the assay. Therefore, 25 μL of virus suspension, was added to all the wells containing test compound and to the wells assigned as virus control. In parallel, 25 μL of culture medium was added to the cell controls. Next, the plates were incubated for 3 days in a fully humidified incubator (37° C., 5% CO2). After 3 days, the supernatant was removed from the wells and the cells were washed twice with ice-cold PBS (˜100 μL). The cell pellets within the 96-well plates were stored at −80° C. for at least 1 day. Next, RNA was extracted using the Cells-to-CT™ lysis kit, according to the manufacturer's guideline (Life Technologies). The cell lysates can be stored at −80° C. or immediately used in the reverse transcription step.
# (§3) In preparation of the reverse transcription step, mix A (table 3A) was prepared and 7.57 μL/well was dispensed in a 96-well plate. After addition of 5 μL of the cell lysates, a five minute denaturation step at 75° C. was performed (table 3B). Afterwards, 7.43 μL of mix B was added (table 3C) and the reverse transcription step was initiated (table 3D) to generate cDNA.
# (§4) Finally, a RT-qPCR mix was prepared, mix C (table 4A), and 22.02 μL/well was dispensed in 96-well LightCycler qPCR plates to which 3 μL of cDNA was added and the qPCR was performed according to the conditions in table 4B on a LightCycler 480.
# (§5) Using the LightCycler software and an in-house LIMS system, dose response curves for each compound were calculated and the half maximal effective concentration (EC50) and the half maximal cytotoxic concentration (CC50) were determined (Tables 5-8).
# DENV-4 strain H241 = assay: Tetravalent RT-qPCR assay Protocol A, serotype 4 H241; format: cell-based; details: Dengue virus, DENV4, Vero, 72 h
# Procedure: as §1, §2, §3, §4, §5
# DENV-3 strain H87 = assay: Tetravalent RT-qPCR assay Protocol A, serotype 3; format: cell-based; details: Dengue virus, DENV3, 72 h; RT-qPCR serotype 3 H87, Vero cells, day 3
# Procedure: as §1, §2, §3, §4, §5
# in vitro [2] = format: cell-based; details: African green monkey, CC50
# Procedure: (§6) In parallel, the toxicity of the compounds was assessed on the same plates. Once the read-out for the eGFP signal was done, 40 μL of ATPlite, a cell viability stain, was added to all wells of the 384-well plates. ATP is present in all metabolically active cells and the concentration declines very rapidly when the cells undergo necrosis or apoptosis. The ATPLite assay system is based on the production of light caused by the reaction of ATP with added luciferase and D-luciferin. The plates were incubated for 10 minutes at room temperature. Next, the plates were measured on a ViewLux. The half maximal cytotoxic concentration (CC50) was also determined, defined as the concentration required to reduce the luminescent signal by 50% compared to that of the cell control wells. Finally, the selectivity index (SI) was determined for the compounds, which was calculated as followed: SI=CC50/EC50.
# DENV-1 strain TC974#666 = assay: Tetravalent RT-qPCR assay Protocol A, serotype 1; format: cell-based; details: Dengue virus, DENV1, 72 h; RT-qPCR serotype 1 TC974#666, Vero cells, day 3
# Procedure: as §1, §2, §3, §4, §5
# Vero cells = assay: in vitro; format: cell-based; details: African green monkey
# Procedure: as §6
# in vitro [3] = format: cell-based; details: African green monkey
# Procedure: as §1, §2, §5
# [4] = Dengue virus, DENV2, Vero, 72 h
structure (smiles),measurement,setting,value
"COc1cc(NC(C(=O)c2c[nH]c3cc(F)c(C)cc23)c2ccc(Cl)cc2OCCO)cc(S(C)(=O)=O)c1 (single isomer, unassigned) [Compound 8A, 2-(4-chloro-2-(2-hydroxyethoxy)phenyl)-1-(6-fluoro-5-methyl-1H-indol-3-yl)-2-((3-methoxy-5-(methylsulfonyl)phenyl)amino)ethanone]",EC50,[1],0.11 nM
same,EC50,DENV-2 strain 16681,0.27 nM
same,EC50,DENV-4 strain H241,36 nM
same,EC50,DENV-3 strain H87,4.2 nM
same,CC50,in vitro [2],> 2500 nM
same,EC50,DENV-1 strain TC974#666,0.39 nM
"COc1cc(NC(C(=O)c2c[nH]c3cc(Cl)ccc23)c2ccc(Cl)cc2OCCO)cc(S(C)(=O)=O)c1 (racemic) [Compound 2, 1-(6-chloro-1H-indol-3-yl)-2-(4-chloro-2-(2-hydroxyethoxy)phenyl)-2-((3-methoxy-5-(methylsulfonyl)phenyl)amino)ethanone]",melting point,,121 °C
same,EC50,[1]; [4],0.27 nM
same,CC50,in vitro [2],4200 nM
"COc1cc(NC(C(=O)c2c[nH]c3cc(OC)ccc23)c2ccc(Cl)cc2OCCO)cc(S(C)(=O)=O)c1 (racemic) [Compound 3, 2-(4-chloro-2-(2-hydroxyethoxy)phenyl)-1-(6-methoxy-1H-indol-3-yl)-2-((3-methoxy-5-(methylsulfonyl)phenyl)amino)ethanone]",melting point,,149 °C
same,EC50,[1]; [4],0.54 nM
same,CC50,in vitro [2],12000 nM
"COc1cc(NC(C(=O)c2c[nH]c3cc(OC)c(OC(F)(F)F)cc23)c2ccc(Cl)cc2OCCO)cc(S(C)(=O)=O)c1 (single isomer, unassigned) [Compound 11B, 2-(4-chloro-2-(2-hydroxyethoxy)phenyl)-2-((3-methoxy-5-(methylsulfonyl)phenyl)amino)-1-(6-methoxy-5-(trifluoromethoxy)-1H-indol-3-yl)ethanone]",EC50,[1],0.089 nM
same,EC50,DENV-2 strain 16681,0.062 nM
same,EC50,DENV-4 strain H241,11 nM
same,EC50,DENV-3 strain H87,1.3 nM
same,CC50,Vero cells,> 2300 nM
same,CC50 at 3 days,in vitro [3],> 2500 nM
same,EC50,DENV-1 strain TC974#666,0.12 nM
"COc1cc(NC(C(=O)c2c[nH]c3c(C)c(Cl)ccc23)c2ccc(Cl)cc2OCCO)cc(S(C)(=O)=O)c1 (racemic) [Compound 5, 2-(4-chloro-2-(2-hydroxyethoxy)phenyl)-1-(6-chloro-7-methyl-1H-indol-3-yl)-2-((3-methoxy-5-(methylsulfonyl)phenyl)amino)ethanone]",melting point,,206 °C
same,EC50,[1]; [4],0.1 nM
same,CC50,in vitro [2],4300 nM
"COc1cc(NC(C(=O)c2c[nH]c3ccc(C(F)(F)F)cc23)c2ccc(Cl)cc2OCCO)cc(S(C)(=O)=O)c1 (single isomer, unassigned) [Compound 9B, 2-(4-chloro-2-(2-hydroxyethoxy)phenyl)-2-((3-methoxy-5-(methylsulfonyl)phenyl)amino)-1-(5-(trifluoromethyl)-1H-indol-3-yl)ethanone]",EC50,[1],0.061 nM
same,EC50,DENV-2 strain 16681,0.054 nM
same,EC50,DENV-4 strain H241,8.1 nM
same,EC50,DENV-3 strain H87,1.2 nM
same,CC50,Vero cells,> 2400 nM
same,CC50 at 3 days,in vitro [3],2900 nM
same,EC50,DENV-1 strain TC974#666,0.083 nM
"COc1cc(NC(C(=O)c2c[nH]c3c(C)cc(OC(F)(F)F)cc23)c2ccc(Cl)cc2OCCO)cc(S(C)(=O)=O)c1 (single isomer, unassigned) [Compound 12B, 2-(4-chloro-2-(2-hydroxyethoxy)phenyl)-2-((3-methoxy-5-(methylsulfonyl)phenyl)amino)-1-(7-methyl-5-(trifluoromethoxy)-1H-indol-3-yl)ethanone]",EC50,[1],0.034 nM
same,EC50,DENV-2 strain 16681,0.053 nM
same,EC50,DENV-4 strain H241,5.5 nM
same,EC50,DENV-3 strain H87,1.1 nM
same,CC50 at 3 days,in vitro [3],> 2300 nM
same,EC50,DENV-1 strain TC974#666,0.086 nM
"COc1cc(NC(C(=O)c2c[nH]c3cc(F)ccc23)c2ccc(Cl)cc2OCCO)cc(S(C)(=O)=O)c1 (single isomer, unassigned) [Compound 1A, 2-(4-chloro-2-(2-hydroxyethoxy)phenyl)-1-(6-fluoro-1H-indol-3-yl)-2-((3-methoxy-5-(methylsulfonyl)phenyl)amino)ethanone]",EC50,[1],0.24 nM
same,EC50,DENV-2 strain 16681,0.24 nM
same,EC50,DENV-4 strain H241,71 nM
same,EC50,DENV-3 strain H87,9.6 nM
same,CC50,Vero cells,3700 nM
same,CC50 at 3 days,in vitro [3],> 2500 nM
same,EC50,DENV-1 strain TC974#666,1.3 nM
"COc1cc(NC(C(=O)c2c[nH]c3ccc(OC(F)(F)F)cc23)c2ccc(Cl)cc2OCCO)cc(S(C)(=O)=O)c1 (single isomer, unassigned) [Compound 10B, 2-(4-chloro-2-(2-hydroxyethoxy)phenyl)-2-((3-methoxy-5-(methylsulfonyl)phenyl)amino)-1-(5-(trifluoromethoxy)-1H-indol-3-yl)ethanone]",EC50,[1],0.067 nM
same,EC50,DENV-2 strain 16681,0.049 nM
same,EC50,DENV-4 strain H241,6.9 nM
same,EC50,DENV-3 strain H87,1.4 nM
same,CC50,Vero cells,2400 nM
same,CC50 at 3 days,in vitro [3],> 2400 nM
same,EC50,DENV-1 strain TC974#666,0.071 nM
